# Assays:
# [1] = system: STHdhQ7/7 (wild type) cells; test: Cell viability MTT assay; type: cell-based; details: 24 h, concentration range 1–100 µM
# Method: Cell viability was quantified using MTT assay (Sigma, St. Louis, MO, M2128). In brief, cells were cultured in each well of 96-well plates with varying concentrations of compounds for 24 h. Following incubation of cells in each well with MTT (0.5 mg/ml) for 4 h, the culture supernatant was discarded. Cells were washed with PBS three times, and the insoluble formazan product dissolved in DMSO. The optical density (OD) of each culture well was measured using as ELISA reader at 570 nm. The OD570 in control cells was taken as 100% viability.
# Next, we evaluated the inhibitory activity of our compound against SETDB1 enzyme by comparing with a well-known methyltransferase inhibitor […] using chemo-luminescence assay (Figure S1a).
# SETDB1 enzyme = SETDB1 enzyme (Homo sapiens, UniProt Q15047); test: biochemical
# Method: SETDB1 enzyme activity was analysed using commercially available SETBD1 chemiluminescent assay kit (BPS Bioscience, San Diego, CA, #51056) according to the manufacturer’s instructions. All analyses were performed in duplicates and all reagents used are supplied in the kit. […] Total 50 µL mixture of histone methylation transfer buffer (50 mM Tris–HCl, pH 9.0, 1 mM phenylmethylsulfonyl fluoride, and 0.5 mM dithiothreitol) containing 20 µM SAM, each concentration of inhibitors and 1.25 ng/µL SETDB1 enzyme was added to each well of a 96-well plate. The wells were pre-coated with histone H3 peptide substrate. Reactions were allowed to proceed for 1 h 30 min at room temperature. Methylated K9 residue of H3 peptide was detected with anti-methylated H3K9 primary antibody and HRP-conjugated secondary antibody. Chemiluminescence resulting from the reaction between the HRP-conjugated secondary antibody and the added HRP substrate was measured using a SpectraMax M2 plate reader (Molecular Devices, Sunnyvale, CA).
# The inhibitory activity at each concentration was recorded by detecting chemiluminescence signal after treatment of H3K9 antibody followed by addition of the HRP substrate.
# [2] = system: HD (Q111/Q111) striatal cells; test: Confocal microscopy of H3K9me3 immunoreactivity in HD cells; type: cell-based
# Method: Immunofluorescence staining and confocal microscopy was used to determine the trimethylated-histone H3 (Lys9) (H3K9me3) (Millipore, Billerica, MA) (1:1000). The procedures were performed as previously described. The specimens were incubated for 1 h with Alexa Fluor 594 goat anti-rabbit antibody (abcam, Cambridge, UK; 1:400) after incubation of the primary antibody. Images were analysed using an A1 Nikon confocal laser scanning microscope (Nikon, Tokyo, Japan).
# Moreover, the promoter assay was carried out.
smiles,measurement,setting,value
"C=CCOc1cccc2nc(N3CCCC3)ccc12 [APQ, 5-allyloxy-2-(pyrrolidin-1-yl)quinoline]","cytotoxicity (cell viability, MTT)",[1],did not show any cytotoxicity
same,IC50,SETDB1 enzyme,65 µM
same,H3K9me3 immunoreactivity,[2],considerably decreased

# — publication PMC8008885 (Journal of Enzyme Inhibition and Medicinal Chemistry, 2021)
